# Data reported in PubChem BioAssay (NCI).
#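 These data come from cells grown in 96-well plates and exposed to compound for 48 hours at five concentrations. TGI: total growth inhibition.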
# Key:
# Assay in all cases: NCI tumour cell line growth inhibition, 48 h
# 786-0 renal = test system: 786-0 renal
# A498 renal = test system: A498 renal
# A549 NSCLC = test system: A549 NSCLC
# ACHN renal = test system: ACHN renal
# BT-549 breast = test system: BT-549 breast
# CAKI-1 renal = test system: CAKI-1 renal
# COLO 205 colon = test system: COLO 205 colon
# DU-145 prostate = test system: DU-145 prostate
# EKVX NSCLC = test system: EKVX NSCLC
# HCT-116 colon = test system: HCT-116 colon
# HCT-15 colon = test system: HCT-15 colon
# HL-60(TB) leukemia = test system: HL-60(TB) leukemia
# HOP-62 NSCLC = test system: HOP-62 NSCLC
# HOP-92 NSCLC = test system: HOP-92 NSCLC
# HS 578T breast = test system: HS 578T breast
# HT29 colon = test system: HT29 colon
# IGROV1 ovarian = test system: IGROV1 ovarian
# KM12 colon = test system: KM12 colon
# LOX IMVI melanoma = test system: LOX IMVI melanoma
# M14 melanoma = test system: M14 melanoma
# MALME-3M melanoma = test system: MALME-3M melanoma
# MCF7 breast = test system: MCF7 breast
# MDA-MB-435 = test system: MDA-MB-435
# MDA-N = test system: MDA-N
# MOLT-4 leukemia = test system: MOLT-4 leukemia
# NCI-H226 lung = test system: NCI-H226 lung
# NCI-H23 lung = test system: NCI-H23 lung
# NCI-H460 lung = test system: NCI-H460 lung
# NCI-H522 lung = test system: NCI-H522 lung
# NCI/ADR-RES ovarian = test system: NCI/ADR-RES ovarian
# OVCAR-3 ovarian = test system: OVCAR-3 ovarian
# OVCAR-4 ovarian = test system: OVCAR-4 ovarian
# OVCAR-5 ovarian = test system: OVCAR-5 ovarian
# OVCAR-8 ovarian = test system: OVCAR-8 ovarian
# PC-3 prostate = test system: PC-3 prostate
# RXF 393 renal = test system: RXF 393 renal
# SF-268 CNS = test system: SF-268 CNS
# SF-295 CNS = test system: SF-295 CNS
# SF-539 CNS = test system: SF-539 CNS
# SK-MEL-2 melanoma = test system: SK-MEL-2 melanoma
# SK-MEL-28 melanoma = test system: SK-MEL-28 melanoma
# SK-MEL-5 melanoma = test system: SK-MEL-5 melanoma
# SK-OV-3 ovarian = test system: SK-OV-3 ovarian
# SN12C renal = test system: SN12C renal
# SNB-19 CNS = test system: SNB-19 CNS
# SNB-75 CNS = test system: SNB-75 CNS
# SR leukemia = test system: SR leukemia
# SW-620 colon = test system: SW-620 colon
# T-47D breast = test system: T-47D breast
# TK-10 renal = test system: TK-10 renal
# U251 CNS = test system: U251 CNS
# UACC-257 melanoma = test system: UACC-257 melanoma
# UACC-62 melanoma = test system: UACC-62 melanoma
# UO-31 renal = test system: UO-31 renal
# CCRF-CEM leukemia = test system: CCRF-CEM leukemia
# HCC-2998 colon = test system: HCC-2998 colon
# K-562 leukemia = test system: K-562 leukemia
# MDA-MB-231 breast = test system: MDA-MB-231 breast
# RPMI-8226 leukemia = test system: RPMI-8226 leukemia
smiles,measurement,setting,value
CCOC(=O)Cc1ccc(Nc2nc3cc(C(F)(F)F)ccc3nc2C(=O)OCC)cc1,TGI,786-0 renal,> 100 µM
same,TGI,A498 renal,> 100 µM
same,TGI,A549 NSCLC,> 100 µM
same,TGI,ACHN renal,> 100 µM
same,TGI,BT-549 breast,> 100 µM
same,TGI,CAKI-1 renal,> 100 µM
same,TGI,COLO 205 colon,> 100 µM
same,TGI,DU-145 prostate,> 100 µM
same,TGI,EKVX NSCLC,> 100 µM
same,TGI,HCT-116 colon,> 100 µM
same,TGI,HCT-15 colon,> 100 µM
same,TGI,HL-60(TB) leukemia,> 100 µM
same,TGI,HOP-62 NSCLC,> 100 µM
same,TGI,HOP-92 NSCLC,> 100 µM
same,TGI,HS 578T breast,85.1 µM
same,TGI,HT29 colon,> 100 µM
same,TGI,IGROV1 ovarian,> 100 µM
same,TGI,KM12 colon,> 100 µM
same,TGI,LOX IMVI melanoma,> 100 µM
same,TGI,M14 melanoma,> 100 µM
same,TGI,MALME-3M melanoma,> 100 µM
same,TGI,MCF7 breast,> 100 µM
same,TGI,MDA-MB-435,> 100 µM
same,TGI,MDA-N,> 100 µM
same,TGI,MOLT-4 leukemia,> 100 µM
same,TGI,NCI-H226 lung,91.6 µM
same,TGI,NCI-H23 lung,> 100 µM
same,TGI,NCI-H460 lung,> 100 µM
same,TGI,NCI-H522 lung,> 100 µM
same,TGI,NCI/ADR-RES ovarian,> 100 µM
same,TGI,OVCAR-3 ovarian,> 100 µM
same,TGI,OVCAR-4 ovarian,> 100 µM
same,TGI,OVCAR-5 ovarian,> 100 µM
same,TGI,OVCAR-8 ovarian,> 100 µM
same,TGI,PC-3 prostate,> 100 µM
same,TGI,RXF 393 renal,51.5 µM
same,TGI,SF-268 CNS,> 100 µM
same,TGI,SF-295 CNS,> 100 µM
same,TGI,SF-539 CNS,55.3 µM
same,TGI,SK-MEL-2 melanoma,> 100 µM
same,TGI,SK-MEL-28 melanoma,> 100 µM
same,TGI,SK-MEL-5 melanoma,> 100 µM
same,TGI,SK-OV-3 ovarian,> 100 µM
same,TGI,SN12C renal,> 100 µM
same,TGI,SNB-19 CNS,> 100 µM
same,TGI,SNB-75 CNS,48.2 µM
same,TGI,SR leukemia,> 100 µM
same,TGI,SW-620 colon,> 100 µM
same,TGI,T-47D breast,> 100 µM
same,TGI,TK-10 renal,> 100 µM
same,TGI,U251 CNS,> 100 µM
same,TGI,UACC-257 melanoma,> 100 µM
same,TGI,UACC-62 melanoma,> 100 µM
same,TGI,UO-31 renal,> 100 µM
Cc1[nH]c2c(C)ccc(C)c2c1CC(=O)O,TGI,786-0 renal,> 100 µM
same,TGI,A498 renal,> 100 µM
same,TGI,A549 NSCLC,> 100 µM
same,TGI,ACHN renal,> 100 µM
same,TGI,BT-549 breast,> 100 µM
same,TGI,CAKI-1 renal,> 100 µM
same,TGI,CCRF-CEM leukemia,42.3 µM
same,TGI,COLO 205 colon,> 100 µM
same,TGI,DU-145 prostate,> 100 µM
same,TGI,EKVX NSCLC,> 100 µM
same,TGI,HCC-2998 colon,> 100 µM
same,TGI,HCT-116 colon,> 100 µM
same,TGI,HCT-15 colon,> 100 µM
same,TGI,HL-60(TB) leukemia,23.7 µM
same,TGI,HOP-62 NSCLC,> 100 µM
same,TGI,HS 578T breast,60.4 µM
same,TGI,HT29 colon,> 100 µM
same,TGI,IGROV1 ovarian,> 100 µM
same,TGI,K-562 leukemia,> 100 µM
same,TGI,KM12 colon,> 100 µM
same,TGI,LOX IMVI melanoma,> 100 µM
same,TGI,M14 melanoma,> 100 µM
same,TGI,MALME-3M melanoma,> 100 µM
same,TGI,MCF7 breast,> 100 µM
same,TGI,MDA-MB-231 breast,76.3 µM
same,TGI,MDA-MB-435,> 100 µM
same,TGI,MDA-N,> 100 µM
same,TGI,MOLT-4 leukemia,54.1 µM
same,TGI,NCI-H226 lung,> 100 µM
same,TGI,NCI-H23 lung,> 100 µM
same,TGI,NCI-H460 lung,> 100 µM
same,TGI,NCI-H522 lung,62.1 µM
same,TGI,NCI/ADR-RES ovarian,> 100 µM
same,TGI,OVCAR-3 ovarian,> 100 µM
same,TGI,OVCAR-4 ovarian,> 100 µM
same,TGI,OVCAR-5 ovarian,> 100 µM
same,TGI,OVCAR-8 ovarian,> 100 µM
same,TGI,PC-3 prostate,69.9 µM
same,TGI,RPMI-8226 leukemia,66.8 µM
same,TGI,RXF 393 renal,> 100 µM
same,TGI,SF-268 CNS,> 100 µM
same,TGI,SF-295 CNS,> 100 µM
same,TGI,SF-539 CNS,> 100 µM
same,TGI,SK-MEL-2 melanoma,81.9 µM
same,TGI,SK-MEL-28 melanoma,> 100 µM
same,TGI,SK-MEL-5 melanoma,> 100 µM
same,TGI,SK-OV-3 ovarian,> 100 µM
same,TGI,SN12C renal,> 100 µM
same,TGI,SNB-19 CNS,> 100 µM
same,TGI,SW-620 colon,> 100 µM
same,TGI,T-47D breast,> 100 µM
same,TGI,TK-10 renal,> 100 µM
same,TGI,U251 CNS,> 100 µM
same,TGI,UACC-257 melanoma,> 100 µM
same,TGI,UACC-62 melanoma,> 100 µM
same,TGI,UO-31 renal,> 100 µM
